Measurements from article PMC8151276, “An Integrated Approach toward NanoBRET Tracers for Analysis of GPCR Ligand Engagement” (Molecules, 2021).

Assays:
FZD4 = biological target: T1, FZD4 (Homo sapiens, UniProt Q9ULV1); assay: NanoBRET screen HiBiT-FZD4 in HEK293; format: binding; conditions: FZD4
T1 construct: purchased Promega (in-house HiBiT-GPCR construct library, NanoBRET)
T1 sequence (Q9ULV1 37-537): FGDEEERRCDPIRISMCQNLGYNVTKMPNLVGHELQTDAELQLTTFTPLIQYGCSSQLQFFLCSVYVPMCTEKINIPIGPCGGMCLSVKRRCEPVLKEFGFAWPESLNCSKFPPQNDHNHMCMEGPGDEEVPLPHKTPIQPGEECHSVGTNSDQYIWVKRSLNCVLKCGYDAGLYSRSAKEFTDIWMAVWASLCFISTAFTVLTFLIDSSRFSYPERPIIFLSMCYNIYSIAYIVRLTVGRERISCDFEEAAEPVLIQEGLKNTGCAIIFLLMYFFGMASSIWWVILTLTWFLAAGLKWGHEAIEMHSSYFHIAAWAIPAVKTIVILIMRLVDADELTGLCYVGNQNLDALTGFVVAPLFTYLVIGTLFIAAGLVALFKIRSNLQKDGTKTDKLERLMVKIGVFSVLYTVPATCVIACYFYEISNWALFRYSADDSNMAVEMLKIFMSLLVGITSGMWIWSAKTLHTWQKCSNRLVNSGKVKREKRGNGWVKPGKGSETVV
Description: (§1) Each tracer candidate was screened across the entire library of HiBiT-GPCR constructs using NanoBRET as the detection modality. As depicted in Figure 4A, the specificity of interactions was evaluated through decrease in BRET due to competitive displacement of a bound tracer by excess parental compound. Each tracer was analyzed for binding to each HiBiT-GPCR fusion in the absence and in the presence of competing parental compound. Briefly, HEK293 cells were transfected with HiBiT-GPCR constructs diluted into promoterless DNA to reduce expression and maximize translocation to the cell surface. Each tracer candidate was then screened at concentrations of 1 μM and 0.1 μM across cells expressing these fusions. Cells were treated for 1.5 h with tracer either alone or in the presence of 20 μM competing parental compound (i.e., control). BRET was measured upon addition of purified LgBiT and subsequent complementation with HiBiT genetically fused to a GPCR. The specificity of interactions was assessed through a decrease in BRET signal due to competitive displacement of the bound tracer. To further gauge the robustness of these interactions, the fold response over the control (i.e., BRETtracer/BRETcontrol) was calculated. We chose a 1.5-fold response, which translates to ≥7-fold signal over noise as the minimal threshold required to score an interaction as positive. […]. Below we highlight the screening results obtained for our exemplary fluorescent tracers based on Clozapine, Amitriptyline and AZD1283.
(§2) HiBiT-GPCR DNA constructs were diluted in 10 mM Tris pH 8 to a final concentration of 0.01 μg/μL, arrayed in 96-well plates and stored at −20 °C. For transfection, HEK293 cells were suspended in Opti-MEM (without phenol red) supplemented with 2% fetal bovine serum (Seradigm) and 100 units/mL penicillin–streptomycin (Gibco) at a final concentration of 220,000 cells/mL and dispensed into white 96-well plates at 90 μL/well. Subsequent transfections and screens were carried using an Agilent Bravo Automated Liquid Handling Platform. First, the 96-well HiBiT DNA arrays were diluted 25-fold in Opti-MEM (without serum or phenol red) to a final concentration of 0.0004 μg/μL and 20 μL of the diluted DNAs were transferred into new 96-well plates. Next, promoterless carrier DNA (1 μg/μL) was diluted 25-fold (0.04 μg/μL) and then dispensed into the diluted arrays at 20 μL/well. Following brief mixing, Viafect transfection reagent (Promega) diluted 16-fold into Opti-MEM was dispensed into the plates at 40 μL/well. After mixing by pipetting, plates were incubated for 10 min on the pipetting station deck. The DNA-transfection reagent complexes were then added to plates containing cells. To facilitate the screen, 10 μL of DNA-transfection reagent complexes were added in duplicates to the top 4 and bottom 4 rows, resulting in two identical 48-well arrays per plate. Plates with transfected cells were incubated for 18–20 h at 37 °C/5% CO2. A screen of each tracer across the entire library using two different concentrations requires duplicate plates of transfected cells. Depending on the number of tracers being screened, transfections can be scaled up using the same ratios. The next day, for each tracer, four 20× screening solutions in tracer dilution buffer (Promega) were prepared: two duplicates at final concentration of 20 μM and two duplicates at a final concentration of 2 μM. A competing unmodified compound was added to one of each duplicate at a final concentration of 400 μM. The four resulting solutions were diluted 4-fold in Opti-MEM without serum or phenol red to generate 5× solutions (5 µM and 0.5 µM tracer +/− 100 μM competing compound). To screen the library, a BioTek MultiFlo FX liquid dispenser was used to dispense 22.5 µL of tracer solution to the top 4 rows and 22.5 µL tracer + competing compound solution to the 4 bottom rows. Plates were briefly mixed on an orbital shaker and incubated for 1.5 h at room temperature. […]

HRH4 = biological target: T2, HRH4 (Homo sapiens, UniProt Q9H3N8); assay: NanoBRET screen HiBiT-HRH4 in HEK293; format: binding; conditions: HRH4
T2 construct: purchased Promega (in-house HiBiT-GPCR construct library, NanoBRET)
T2 sequence (Q9H3N8 whole entry): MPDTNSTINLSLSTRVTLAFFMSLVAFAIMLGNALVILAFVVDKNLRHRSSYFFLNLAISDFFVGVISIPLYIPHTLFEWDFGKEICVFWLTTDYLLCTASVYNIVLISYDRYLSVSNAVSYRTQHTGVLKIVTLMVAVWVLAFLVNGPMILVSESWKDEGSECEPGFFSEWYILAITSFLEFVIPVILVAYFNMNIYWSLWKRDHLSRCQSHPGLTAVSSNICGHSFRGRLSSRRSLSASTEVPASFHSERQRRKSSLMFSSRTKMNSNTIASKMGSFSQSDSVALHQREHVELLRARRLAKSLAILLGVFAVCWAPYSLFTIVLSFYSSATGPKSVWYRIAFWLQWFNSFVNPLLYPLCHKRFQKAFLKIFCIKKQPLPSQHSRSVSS
Description: as §1, §2

Compound: CN1CCN(C2=Nc3cc(Cl)ccc3N(CC(=O)NCCOCCOCCOCCOCCNC(=O)CCc3ccc4n3[B-](F)(F)[N+]3=C(c5ccc[nH]5)C=CC3=C4)c3ccccc32)CC1 [Clozapine-c-2-NB590]
- NanoBRET Fold Response (FZD4; 0.1μM tracer): 1.02
- NanoBRET Fold Response (FZD4; 1μM tracer): 0.93
- NanoBRET Fold Response (HRH4; 0.1μM tracer): 1.04
- NanoBRET Fold Response (HRH4; 1μM tracer): 0.97

Compound: O=C(CCOCCOCCOCCOCCNC(=O)CCc1ccc2n1[B-](F)(F)[N+]1=C(c3ccc[nH]3)C=CC1=C2)NCCCN1CCN(C2=Nc3ccccc3Oc3ccc(Cl)cc32)CC1 [Loxapine-a-2-NB590]
- NanoBRET Fold Response (FZD4; tracer 0.1μM): 0.98
- NanoBRET Fold Response (FZD4; tracer 1μM): 0.89
- NanoBRET Fold Response (HRH4; tracer 0.1μM): 0.96
- NanoBRET Fold Response (HRH4; tracer 1μM): 1.02

Compound: COc1ccccc1N1CCN(CCCCN2C(=O)c3ccc(CNC(=O)CCOCCOCCOCCOCCNC(=O)CCc4ccc5n4[B-](F)(F)[N+]4=C(c6ccc[nH]6)C=CC4=C5)cc3C2=O)CC1 [NAN-190-2-NB590]
- NanoBRET Fold Response (FZD4; tracer 0.1μM): 1.03
- NanoBRET Fold Response (FZD4; tracer 1μM): 1.08
- NanoBRET Fold Response (HRH4; tracer 0.1μM): 0.96

Compound: COc1ccccc1N1CCN(CCCCN2C(=O)c3ccc(CNC(=O)CCOCCNC(=O)c4ccc(CNC(=O)CCc5ccc6n5[B-](F)(F)[N+]5=C(c7ccc[nH]7)C=CC5=C6)cc4)cc3C2=O)CC1 [NAN-190-3-NB590]
- NanoBRET Fold Response (FZD4; tracer 0.1μM): 1.03
- NanoBRET Fold Response (FZD4; tracer 1μM): 1.38
- NanoBRET Fold Response (HRH4; tracer 0.1μM): 0.93
- NanoBRET Fold Response (HRH4; tracer 1μM): 0.93

Compound: O=C(CCc1ccc2n1[B-](F)(F)[N+]1=C(c3ccc[nH]3)C=CC1=C2)NCc1ccc(C(=O)NCCOCCC(=O)N[C@@H]2CC[C@@]3(O)[C@H]4Cc5ccc(O)c6c5[C@@]3(CCN4CC3CC3)[C@H]2O6)cc1 [Naltrexone-3-NB590]
- NanoBRET Fold Response (FZD4; tracer 0.1μM): 0.89
- NanoBRET Fold Response (FZD4; tracer 1μM): 1.14
- NanoBRET Fold Response (HRH4; tracer 0.1μM): 0.75
- NanoBRET Fold Response (HRH4; tracer 1μM): 0.91

Compound: Cc1cc2c(s1)Nc1ccccc1N=C2N1CCN(CCCNC(=O)CCOCCOCCOCCOCCNC(=O)CCc2ccc3n2[B-](F)(F)[N+]2=C(c4ccc[nH]4)C=CC2=C3)CC1 [Olanzapine-a-2-NB590]
- NanoBRET Fold Response (FZD4; tracer 0.1μM): 1.00
- NanoBRET Fold Response (FZD4; tracer 1μM): 0.93
- NanoBRET Fold Response (HRH4; tracer 0.1μM): 1.01
- NanoBRET Fold Response (HRH4; tracer 1μM): 0.94

Compound: O=C(CCc1ccc2n1[B-](F)(F)[N+]1=C(c3ccc[nH]3)C=CC1=C2)NCc1ccc(C(=O)NCCOCCOCCNCC(O)COc2cccc3ccccc23)cc1 (stereo not drawn) [Propranolol-3-NB590]
- NanoBRET Fold Response (FZD4; 0.1μM): 1.09
- NanoBRET Fold Response (FZD4; 1μM): 1.07
- NanoBRET Fold Response (HRH4; 0.1μM): 0.92
- NanoBRET Fold Response (HRH4; 1μM): 0.97

Compound: O=C(CCc1ccc2n1[B-](F)(F)[N+]1=C(c3ccc[nH]3)C=CC1=C2)NCCOCCOCCNC(=O)OCCOCCN1CCN(C2=Nc3ccccc3Sc3ccccc32)CC1 [Quetiapine-a-2-NB590]
- NanoBRET Fold Response (FZD4; tracer 0.1μM): 0.96
- NanoBRET Fold Response (FZD4; tracer 1μM): 0.91
- NanoBRET Fold Response (HRH4; tracer 0.1μM): 1.01
- NanoBRET Fold Response (HRH4; tracer 1μM): 0.96

Compound: Cc1nc2n(c(=O)c1CCN1CCC(c3noc4cc(F)ccc34)CC1)CCCC2OC(=O)NCCOCCOCCOCCOCCNC(=O)CCc1ccc2n1[B-](F)(F)[N+]1=C(c3ccc[nH]3)C=CC1=C2 (stereo not drawn) [Risperidone-2-NB590]
- NanoBRET Fold Response (FZD4; tracer 0.1μM): 1.14
- NanoBRET Fold Response (FZD4; tracer 1μM): 1.01
- NanoBRET Fold Response (HRH4; tracer 0.1μM): 1.03
- NanoBRET Fold Response (HRH4; tracer 1μM): 1.07

Compound: CC(C)N(CC[C@H](c1ccccc1)c1cc(CCNC(=O)CCOCCOCCOCCOCCNC(=O)CCc2ccc3n2[B-](F)(F)[N+]2=C(c4ccc[nH]4)C=CC2=C3)ccc1O)C(C)C [Tolterodine-2-NB590]
- NanoBRET Fold Response (FZD4; tracer 0.1μM): 0.95
- NanoBRET Fold Response (FZD4; tracer 1μM): 0.96
- NanoBRET Fold Response (HRH4; tracer 0.1μM): 1.05
- NanoBRET Fold Response (HRH4; tracer 1μM): 1.03
